Structures are written as SMILES.

In the experiment the target is T1, MutSβ (Homo sapiens, UniProt P20585+P43246).
T1 construct: purchased AMRI
T1 sequence (P43246 whole entry): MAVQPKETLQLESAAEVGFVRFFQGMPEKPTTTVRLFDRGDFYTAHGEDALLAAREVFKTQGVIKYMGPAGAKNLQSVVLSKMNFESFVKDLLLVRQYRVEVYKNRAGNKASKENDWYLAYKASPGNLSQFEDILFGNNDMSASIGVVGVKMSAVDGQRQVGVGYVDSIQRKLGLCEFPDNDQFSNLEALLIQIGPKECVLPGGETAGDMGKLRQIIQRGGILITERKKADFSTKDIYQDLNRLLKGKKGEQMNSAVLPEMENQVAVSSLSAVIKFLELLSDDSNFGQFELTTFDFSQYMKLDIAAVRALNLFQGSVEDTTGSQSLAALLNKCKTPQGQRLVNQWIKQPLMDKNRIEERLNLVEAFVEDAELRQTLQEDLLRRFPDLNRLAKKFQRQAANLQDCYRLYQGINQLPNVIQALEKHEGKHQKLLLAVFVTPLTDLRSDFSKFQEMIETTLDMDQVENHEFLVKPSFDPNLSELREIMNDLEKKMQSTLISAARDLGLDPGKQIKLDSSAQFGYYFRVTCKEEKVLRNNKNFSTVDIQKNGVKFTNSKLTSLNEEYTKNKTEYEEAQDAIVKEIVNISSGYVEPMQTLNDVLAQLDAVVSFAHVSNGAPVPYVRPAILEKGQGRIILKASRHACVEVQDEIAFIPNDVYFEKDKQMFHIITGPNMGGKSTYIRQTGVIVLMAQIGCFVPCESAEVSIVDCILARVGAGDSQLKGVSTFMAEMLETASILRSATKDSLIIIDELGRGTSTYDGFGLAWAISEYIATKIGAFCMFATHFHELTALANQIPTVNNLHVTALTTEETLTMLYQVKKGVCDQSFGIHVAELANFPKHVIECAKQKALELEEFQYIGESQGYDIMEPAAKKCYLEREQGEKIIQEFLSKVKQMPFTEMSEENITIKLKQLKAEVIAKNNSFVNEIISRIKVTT
T1 sequence (P20585 whole entry): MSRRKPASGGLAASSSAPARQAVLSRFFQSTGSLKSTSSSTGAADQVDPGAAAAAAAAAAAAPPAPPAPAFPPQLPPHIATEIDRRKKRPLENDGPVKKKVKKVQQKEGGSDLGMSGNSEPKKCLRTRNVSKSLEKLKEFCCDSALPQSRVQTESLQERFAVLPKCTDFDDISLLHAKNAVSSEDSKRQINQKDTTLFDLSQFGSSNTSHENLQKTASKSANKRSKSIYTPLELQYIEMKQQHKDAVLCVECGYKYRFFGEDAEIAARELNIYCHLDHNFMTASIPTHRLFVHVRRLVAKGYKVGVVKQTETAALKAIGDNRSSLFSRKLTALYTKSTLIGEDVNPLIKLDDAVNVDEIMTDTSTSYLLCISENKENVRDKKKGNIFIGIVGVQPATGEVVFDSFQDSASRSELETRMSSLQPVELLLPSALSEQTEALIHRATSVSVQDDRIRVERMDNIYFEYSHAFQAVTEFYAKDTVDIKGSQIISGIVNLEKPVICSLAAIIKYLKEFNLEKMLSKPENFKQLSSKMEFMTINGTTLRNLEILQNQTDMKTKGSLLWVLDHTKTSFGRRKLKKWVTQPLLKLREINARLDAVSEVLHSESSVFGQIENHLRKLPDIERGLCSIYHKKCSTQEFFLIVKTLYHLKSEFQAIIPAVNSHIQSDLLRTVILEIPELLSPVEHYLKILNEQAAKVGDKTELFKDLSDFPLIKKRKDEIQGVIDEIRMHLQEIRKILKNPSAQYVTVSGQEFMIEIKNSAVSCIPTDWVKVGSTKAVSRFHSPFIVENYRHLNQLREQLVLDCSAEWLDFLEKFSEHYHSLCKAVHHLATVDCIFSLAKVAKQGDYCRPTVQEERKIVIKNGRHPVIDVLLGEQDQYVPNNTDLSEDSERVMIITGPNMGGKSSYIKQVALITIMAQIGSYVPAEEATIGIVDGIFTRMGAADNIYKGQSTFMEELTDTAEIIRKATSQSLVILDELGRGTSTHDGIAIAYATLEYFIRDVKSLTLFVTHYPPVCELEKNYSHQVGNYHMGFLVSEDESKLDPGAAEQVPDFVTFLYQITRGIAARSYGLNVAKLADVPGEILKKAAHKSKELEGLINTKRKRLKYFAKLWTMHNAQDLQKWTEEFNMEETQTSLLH
Description: MutSβ ADP Glo Assay. Type of experiment: biochemical. The settings on record: 20nM MutSβ, 30nM CAG DNA, 25 µM ATP, 2 hours at room temperature. On the procedure: Biological Example A - MutSβ Assay
• MutSβ (supplied by AMRI) stored at -70°C • ADP Glo Kinase Assay Kit (Promega: V9102) stored at -20°C • ATP (supplied within the ADP Glo Kit) stored at -20°C • 1M KCI (Sigma Aldrich: P9333) stored at 2-8°C • 1 M HEPES pH 7.5 (Gibco: M15630-080) stored at 2-8°C • 1M MgCl2 (Sigma Aldrich: M1028-100mL) stored at 2-8°C • Tween-20 (Sigma Aldrich: P1379) (10% solution) stored at 2-8°C • 500mM DTT (Sigma Aldrich: 10197777001) stored at -20°C • CAG loop DNA for MutSβ (made in house) stored at -20°C • MilliQ water stored at room temperature
• 1. Prepare the buffer fresh each day • 2. Take the enzyme from the freezer, thaw in room temperature water and centrifuge at 13,000 rpm for 10 minutes at 2-8C, then make up enzyme and ATP stocks • 3. Quality Control the multidrop head to a %CV of <2% • 4. Add 3µL of 33.34nM MutSβ and 50.01nM CAG looped DNA solution […] to each well in columns 1 and 3-23 of the plate • 5. Pre-incubate the MutSβ and buffer mix for 10 minutes with the compounds • 6. Wash the multidrop head through with MilliQ water (for at least 30 seconds) • 7. Add 3µL of MutSβ Assay buffer (without enzyme) to columns 2 and 24 for the vehicle controls • 8. Wash the multidrop head through with MilliQ water (for at least 30 seconds) • 9. Add 2µL of 62.5µM ATP to each well of the whole plate, then wash with MilliQ water (for a minimum of 30 seconds) • 10. Centrifuge plate for 1 minute at 1000 rpm • 11. Incubate for 2 hours at room temperature • 12. Add 5µL of ADP Glo reagent to each well of the whole plate and wash the multidrop head with MilliQ water (for a minimum of 30 seconds) • 13. Incubate for 40 minutes at room temperature (minimum requirement) • 14. Add 10µL of Kinase Detection Reagent to each well of the whole plate • 15. Wash the multidrop head with MilliQ water more than 1 minute and then dry • 16. Remove the head and put the cover back on for overnight storage • 17. Incubate for 30 minutes at room temperature (minimum requirement) • 18. Read on a microplate reader
Compound `CNS(=O)(=O)OCC(=O)Nc1nc(C)c(Cc2cccc3ccccc23)s1` [Example 48, 2-((4-methyl-5-(naphthalen-1-ylmethyl)thiazol-2-yl)amino)-2-oxoethyl methylsulfamate] returned an IC50 of 10 to 50 µM. Then `CNS(=O)(=O)OCC(=O)Nc1nc(C)c(Cc2ccc(C)cc2)s1` [Example 47, 2-((4-methyl-5-(4-methylbenzyl)thiazol-2-yl)amino)-2-oxoethyl methylsulfamate], with 1 to 10 µM; and `Cc1nc(NC(=O)COS(=O)(=O)N(C)C)sc1Cc1ccccc1` [Example 28, 2-((5-benzyl-4-methylthiazol-2-yl)amino)-2-oxoethyl dimethylsulfamate], with 1 to 10 µM; and `CNS(=O)(=O)OCC(=O)Nc1nc(C)c(Cc2ccc(C(C)C)cc2)s1` [Example 33, 2-((5-(4-isopropylbenzyl)-4-methylthiazol-2-yl)amino)-2-oxoethyl methylsulfamate], with 10 to 50 µM. As to `CNS(=O)(=O)OCC(=O)Nc1nc(C)c(Cc2cc(F)cc(Cl)c2)s1` [Example 54, 2-((5-(3-chloro-5-fluorobenzyl)-4-methylthiazol-2-yl)amino)-2-oxoethyl methylsulfamate], the IC50 lay within 1 to 10 µM.

`Cc1ccc(Cc2sc(NC(=O)COS(=O)(=O)N3CCC3)nc2C)cc1` [Example 25, 2-((4-methyl-5-(4-methylbenzyl)thiazol-2-yl)amino)-2-oxoethyl azetidine-1-sulfonate] showed an IC50 of at most 0.5 µM.

The compound `CNS(=O)(=O)OCC(=O)Nc1nc(C(C)C)c(Cc2ccc(C)cc2)s1` [Example 37, 2-((4-isopropyl-5-(4-methylbenzyl)thiazol-2-yl)amino)-2-oxoethyl methylsulfamate] registered an IC50 of 10 to 50 µM. Compound `CNS(=O)(=O)OCC(=O)Nc1nc(C)c(Cc2ccc(Cl)cc2)s1` [Example 30, 2-((5-(4-chlorobenzyl)-4-methylthiazol-2-yl)amino)-2-oxoethyl methylsulfamate] yielded an IC50 of 1 to 10 µM.

In the case of `Cc1nc(NC(=O)COS(=O)(=O)N(C)C)sc1Cc1cccc(C(F)(F)F)c1` [Example 13, 2-((4-methyl-5-(3-(trifluoromethyl)benzyl)thiazol-2-yl)amino)-2-oxoethyl dimethylsulfamate], the IC50 fell in the range of 1 to 10 µM. `CNS(=O)(=O)OCC(=O)Nc1nc(C(F)(F)F)c(Cc2ccc(C)cc2)s1` [Example 44] registered an IC50 of 1 to 10 µM. For the compound `Cc1nc(NC(=O)COS(=O)(=O)N(C)C)sc1CCc1ccccc1` [Example 35, 2-((4-methyl-5-phenethylthiazol-2-yl)amino)-2-oxoethyl dimethylsulfamate], the IC50 is 10 to 50 µM. As to `CNS(=O)(=O)OCC(=O)Nc1nc(C)c(CCc2ccc(Cl)cc2)s1` [Example 38, 2-((5-(4-chlorophenethyl)-4-methylthiazol-2-yl)amino)-2-oxoethyl methylsulfamate], the IC50 fell in the range of 10 to 50 µM.

`COCCNS(=O)(=O)OCC(=O)Nc1nc(C)c(Cc2cccc(Cl)c2)s1` [Example 8, 2-((5-(3-chlorobenzyl)-4-methylthiazol-2-yl)amino)-2-oxoethyl (2-methoxyethyl)sulfamate] gave a concentration for half-maximal inhibition (IC50) of 0.5 to 1 µM. Take `CCN(C(=O)COS(=O)(=O)NC)c1nc(C)c(Cc2cccc(Cl)c2)s1` [Example 57, 2-((5-(3-chlorobenzyl)-4-methylthiazol-2-yl)(ethyl)amino)-2-oxoethyl methylsulfamate]: the IC50 is 0.5 to 1 µM. Then `COCCN(C)S(=O)(=O)OCC(=O)Nc1nc(C)c(Cc2ccc(C)cc2)s1` [Example 29, 2-((4-methyl-5-(4-methylbenzyl)thiazol-2-yl)amino)-2-oxoethyl (2-methoxyethyl)(methyl)sulfamate], with 0.5 to 1 µM. Take `Cc1nc(NC(=O)COS(=O)(=O)NCCF)sc1Cc1cccc(Cl)c1` [Example 49, 2-((5-(3-chlorobenzyl)-4-methylthiazol-2-yl)amino)-2-oxoethyl (2-fluoroethyl)sulfamate]: the IC50 is 0.5 to 1 µM. Then `CNS(=O)(=O)OCC(=O)Nc1nc(C)c(Oc2cccc(Cl)c2)s1` [Example 61, 2-((5-(3-chlorophenoxy)-4-methylthiazol-2-yl)amino)-2-oxoethyl methylsulfamate], with 0.5 to 1 µM; and `CCCNS(=O)(=O)OCC(=O)Nc1nc(C)c(Cc2ccc(C)cc2)s1` [Example 41, 2-((4-methyl-5-(4-methylbenzyl)thiazol-2-yl)amino)-2-oxoethyl propylsulfamate], with 1 to 10 µM; and `CNS(=O)(=O)OCC(=O)Nc1nc(C)c(Cc2ccc(C(F)(F)F)cc2)s1` [Example 32, 2-((4-methyl-5-(4-(trifluoromethyl)benzyl)thiazol-2-yl)amino)-2-oxoethyl methylsulfamate], with 1 to 10 µM.

Turning to `Cc1ccc(Cc2sc(NC(=O)COS(=O)(=O)NC(C)C)nc2C)cc1` [Example 23, 2-((4-methyl-5-(4-methylbenzyl)thiazol-2-yl)amino)-2-oxoethyl isopropylsulfamate], the half-maximal inhibitory concentration (IC50) lay in the range of 1 to 10 µM.

Turning to `CNS(=O)(=O)OCC(=O)Nc1nc(COC2CCN(C)CC2)c(Cc2cccc(Cl)c2)s1` [Example 50, 2-((5-(3-chlorobenzyl)-4-(((1-methylpiperidin-4-yl)oxy)methyl)thiazol-2-yl)amino)-2-oxoethyl methylsulfamate], the IC50 was 10 to 50 µM. In turn, `CNS(=O)(=O)OCC(=O)N(C)c1nc(C)c(Cc2ccc(Cl)c(Cl)c2)s1` [Example 59, 2-((5-(3,4-dichlorobenzyl)-4-methylthiazol-2-yl)(methyl)amino)-2-oxoethyl methylsulfamate] gave an IC50 of at most 0.5 µM. As for `CNS(=O)(=O)OCC(=O)Nc1nc(C2CC2)c(Cc2ccc(C)cc2)s1` [Example 36, 2-((4-cyclopropyl-5-(4-methylbenzyl)thiazol-2-yl)amino)-2-oxoethyl methylsulfamate], the IC50 was 1 to 10 µM. For the compound `Cc1nc(NC(=O)COS(=O)(=O)N(C)C)sc1Cc1ccc(F)cc1` [Example 4, 2-((5-(4-fluorobenzyl)-4-methylthiazol-2-yl)amino)-2-oxoethyl dimethylsulfamate], the IC50 lay within 0.5 to 1 µM. `Cc1ccc(Cc2sc(NC(=O)COS(=O)(=O)N3CCCC3)nc2C)cc1` [Example 31, 2-((4-methyl-5-(4-methylbenzyl)thiazol-2-yl)amino)-2-oxoethyl pyrrolidine-1-sulfonate]: the IC50 is 1 to 10 µM. `Cc1ccc(Cc2sc(NC(=O)COS(=O)(=O)N(C)C)nc2C)cc1` [Example 20, 2-((4-methyl-5-(4-methylbenzyl)thiazol-2-yl)amino)-2-oxoethyl dimethylsulfamate] registered a 50% inhibitory concentration (IC50) of 1 to 10 µM.

In the case of `Cc1ccc(Cc2sc(NC(=O)COS(=O)(=O)N(C)Cc3ccccc3)nc2C)cc1` [Example 42, 2-((4-methyl-5-(4-methylbenzyl)thiazol-2-yl)amino)-2-oxoethyl benzyl(methyl)sulfamate], the IC50 was in the range of 1 to 10 µM. The compound `CNS(=O)(=O)OCC(=O)Nc1nc(C)c(Cc2ccc(OC)cc2)s1` [Example 26, 2-((5-(4-methoxybenzyl)-4-methylthiazol-2-yl)amino)-2-oxoethyl methylsulfamate] returned an IC50 of 1 to 10 µM. On to `Cc1ccc(Cc2sc(NC(=O)COS(=O)(=O)NC(C)(C)C)nc2C)cc1` [Example 43, 2-((4-methyl-5-(4-methylbenzyl)thiazol-2-yl)amino)-2-oxoethyl tert-butylsulfamate], for which the IC50 lay in the range of 10 to 50 µM. Compound `CNS(=O)(=O)OCC(=O)Nc1nc(C)c(Cc2cccc(Cl)c2F)s1` [Example 53, 2-((5-(3-chloro-2-fluorobenzyl)-4-methylthiazol-2-yl)amino)-2-oxoethyl methylsulfamate] showed an IC50 of 1 to 10 µM. The compound `CNS(=O)(=O)OCC(=O)Nc1nc(C)c(Cc2ccccc2C)s1` [Example 11, 2-((4-methyl-5-(2-methylbenzyl)thiazol-2-yl)amino)-2-oxoethyl methylsulfamate] gave an IC50 of 10 to 50 µM. Turning to `Cc1nc(NC(=O)COS(=O)(=O)N(C)C)sc1Cc1ccccc1F` [Example 22, 2-((5-(2-fluorobenzyl)-4-methylthiazol-2-yl)amino)-2-oxoethyl dimethylsulfamate], the IC50 fell in the range of 1 to 10 µM.

Turning to `Cc1ccc(Cc2sc(NC(=O)COS(N)(=O)=O)nc2C)cc1` [Example 3, 2-((4-methyl-5-(4-methylbenzyl)thiazol-2-yl)amino)-2-oxoethyl sulfamate], the 50% inhibitory concentration (IC50) lay in the range of 1 to 10 µM. In turn, `CNS(=O)(=O)OCC(=O)Nc1nc2c(s1)C(c1cccc(Cl)c1)CCC2` (stereo not shown) [Example 62, 2-((7-(3-chlorophenyl)-4,5,6,7-tetrahydrobenzo[d]thiazol-2-yl)amino)-2-oxoethyl methylsulfamate] had an IC50 of at most 0.5 µM.

The record behind these values is patent EP4574817A1 (LoQus23 Therapeutics Limited, priority 2023, dated 2025).
